In patent US20030187044A1, “Medicament” (SmithKline Beecham p.l.c., priority 1990, published 2003):

Compound	melting point
CCCCc1nc2cc(Br)cc(C(=O)O)c2n1Cc1ccccc1Cl [Example 4, 5-Bromo-2-n-butyl-1-(2-chlorophenyl)methyl-1H -benzimidazole-7-carboxylic Acid]	254 to 255 °C
CCCSc1ncc(C[C@H](NC(=O)CCC)C(=O)O)n1Cc1ccccc1Cl [Example 1, 3-[(2-Chlorophenyl)methyl]-2-propylthio-N -butyrylhistidine]	178 to 181 °C
